Laboratory results reported in PMC9785441, “A Broad Spectrum Antiparasitic Activity of Organotin (IV) Derivatives and Its Untargeted Proteomic Profiling Using Leishmania donovani” (Pathogens, 2022).
Values belong to the compound of their own block, whether it stands above or below them.

How the values were obtained:
[1] = system: L. donovani promastigotes; assay: L. donovani promastigote viability assay (resazurin); assay type: cell-based, Leishmania donovani; settings: Leishmania donovani; Figure S1 dose response curves, RFU; read-out: IC50 against the promastigotes of L. donovani
Procedure: Promastigotes of L. donovani from late log phase culture were diluted to 2.0 × 10^6/mL in M-199 containing 10% FBS, 25 mM HEPES (Gibco 15630-080), 100 µM adenine, 12 mM NaHCO3, 10 µM folic acid, 1% penicillin/streptomycin (Gibco 15140-122) as described previously. Compounds and controls were transferred from compound plates to 384 well assay plates with the use of an acoustic transfer system (ATS, EDC Biosystems, Fremont, CA, USA). Promastigotes were incubated with compounds at 29 °C for 48 h. To measure parasite viability, resazurin sodium salt (7-hydroxy-3H-phenoxazin3-one 10-oxide) was dissolved in PBS and added to each well at a volume of 5 µL (final concentration of 44 µM). After incubating for 4 h at room temperature, fluorescence (ex 571 nm/em 584 nm) was recorded with an Envision (Perkin Elmer, Waltham, MA, USA) microplate fluorescence/luminescence reader. […] For positive and negative control amphotericin B and 0.5% DMSO was used, respectively. Dose response and EC50 analyses were obtained using GraphPad Prism 9 Software (Graph Pad Software Inc., San Diego, CA, USA).

[2] = system: N. fowleri (KUL strain) trophozoites; assay: N. fowleri trophozoite viability assay (CellTiter-Glo); assay type: cell-based, Naegleria fowleri; settings: Naegleria fowleri, 48 h
Procedure: N. fowleri (KUL strain) was cultured in Nelson’s medium supplemented with 10% FBS and kept at 37 °C. For all experiments, trophozoites were harvested during the logarithmic phase of growth. Test compounds were serially diluted and transferred to a white solid bottomed 96-well tissue culture plate (E&K Scientific, Swedesboro, NJ, USA) followed by addition of 10,000 N. fowleri trophozoites in Nelson’s medium in a final volume of 100 µL and a final concentration of compounds ranging from 50 to 0.39 µM. Amphotericin B was used as positive control and assay plates were incubated for 48 h at 37 °C. Parasite viability was measured as described for E. histolytica and G. lamblia. EC50 values were obtained using the GraphPad Prism 9 Software.

[3] = system: T. cruzi (infecting C2C12); assay: T. cruzi intracellular amastigote assay in C2C12 cells (high content imaging); assay type: cell-based, Trypanosoma cruzi; settings: Trypanosoma cruzi, C2C12, 72 h, read-out: EC50 T. cruzi (infecting C2C12)
Procedure: Mouse C2C12 myoblasts (ATCC CRL-1772) were cultivated in RPMI 1640 medium supplemented with 5% FBS and kept at 37 °C and 5% CO2. T. cruzi CAI-72 trypomastigotes were obtained from the supernatant of C2C12 cells infected four to seven days previously. For the assay, 500 C2C12 cells were mixed with 7500 T. cruzi parasites and seeded into 384-well plates at a 50 µL final volume. Test compounds and reference drugs (Benznidazole and K11777) were pre-spotted into the 384 well black bottom plates prior to the addition of cells and parasites with final assay concentration of 20 µM to 0.02 µM. The plates were incubated at 37 °C^, 5% CO2 for 72 h. Cultures were then fixed with 4% formaldehyde and 0.5 µg/mL DAPI (diamidino-2-phenylindole) was added for staining nucleic acids. Plates were kept protected from light for 1 h and then imaged in an ImageXpress Micro XLS automated high content imager (Molecular Devices, San Jose, CA, USA). Imaging and data analysis were performed as described for L. donovani amastigotes on biological triplicates.

[4] = system: E. histolytica HM1:IMSS trophozoites; assay: E. histolytica trophozoite viability assay (CellTiter-Glo); assay type: cell-based, Entamoeba histolytica; settings: Entamoeba histolytica, 48 h
Procedure: Trophozoites of E. histolytica HM1:IMSS were maintained in vitro as described in TYI-S-33 medium supplemented with penicillin (100 U/mL) and streptomycin (100 µg/mL). Test compounds were serially diluted and transferred to a white solid bottomed 96-well tissue culture plate (E&K Scientific, Swedesboro, NJ, USA) followed by addition of 5000 E. histolytica trophozoites per well for a final volume of 100 µL TYI-S-33 medium and a final concentration of compounds ranging from 50 to 0.39 µM. Metronidazole were used as positive control and assay plates were incubated for 48 h at 37 °C. The plates maintained kept anaerobically using the GasPak EZ Anaerobic Gas Generating Pouch System (VWR). Parasite viability was measured in triplicate using the CellTiter-Glo luminescence kit (Promega G9243) in an Envision plate reader (Perkin Elmer, Waltham, MA, USA). EC50 values were obtained using GraphPad Prism 9 Software.

[5] = system: G. lamblia (WB strain) trophozoites; assay: G. lamblia trophozoite viability assay (CellTiter-Glo); assay type: cell-based, Giardia lamblia; settings: Giardia duodenalis, 48 h
Procedure: Trophozoites of G. lamblia (WB strain) were maintained in vitro as described in TYI-S-33 medium supplemented with penicillin (100 U/mL) and streptomycin (100 µg/mL). Cells were harvested during the logarithmic phase of the growth for antiparasitic assessment. Test compounds were serially diluted and transferred to a white solid bottomed 96-well tissue culture plate (E&K Scientific, Swedesboro, NJ, USA) followed by addition of 5000 G. lamblia trophozoites for a final volume of 100 µL of TYI-S-33 medium and a final concentration of compounds ranging from 50.0 to 0.39 µM. Metronidazole was used as a positive control and assay plates were incubated for 48 h at 37 °C in the GasPak EZ Anaerobic Gas Generating Pouch System (VWR). Parasite viability was measured in triplicate using the CellTiter-Glo luminescence kit in an Envision plate reader. EC50 values were obtained using the GraphPad Prism 9 Software.

[6] = system: T. b. brucei Lister 427 bloodstream forms; assay: T. brucei bloodstream form viability assay (SYBR Green); assay type: cell-based, Trypanosoma brucei; settings: Trypanosoma brucei; bloodstream forms, 72 h
Procedure: Bloodstream forms of T. b. brucei Lister 427 were cultured in complete HMI-9 medium in T25 suspension culture flasks (Thermo Scientific, Cat. 12-566-84) and maintained at 37 °C and 5% CO2. Trypanosomes were kept in log-phase growth and passaged every 48 h. […] Pentamidine were used as a positive control for T. brucei assay. Compounds were diluted with fresh HMI-9 medium (99 µL/well). Parasites in log-phase were suspended at 2 × 10^5 parasites/mL in HMI-9 medium and then added to each well (100 µL) to give 2 × 10^4 trypanosomes/well. Assay plates were incubated at 37 °C and 5% CO2 for 72 h. Parasite lysate was obtained by addition of 50 µL/well of lysis solution (0.012% saponin, 0.12% Triton X-100, 7.5 mM ETDA, 30 mM Tris, pH 7.5) containing 0.3 µL/mL SYBR Green I (10,000× in DMSO; Invitrogen, Carlsbad, CA, USA). Assay plates were incubated in the dark for 1 h at room temperature. Fluorescence was measured at 485 nm excitation and 535 nm emission wavelengths using an EnVision multilabel plate reader (PerkinElmer, Waltham, MA, USA). In each assay plate, parasite viability was normalized relative to positive (pentamidine) and negative (0.5% DMSO) controls in each assay plate. Assays were performed in biological and technical duplicates, and dose–response and EC50 data were generated with GraphPad Prism 9 using a sigmoidal four parameter logistic curve.

S. mansoni, adult worm = assay: S. mansoni adult worm ex vivo phenotypic screen (severity score); assay type: cell-based, Schistosoma mansoni; settings: after 24 h; tested at 10, 5, 2.5 and 1.25 µM; EC50
From the text: The Naval Medical Research Institute (NMRI) isolate of S. mansoni was used. The parasite was cycled between Biomphalaria glabrata snails and male Golden Syrian hamsters (infected at 4–6 weeks of age) as intermediate and definitive hosts, respectively. Hamsters were infected and maintained in accordance with protocols approved by the Institutional Animal Care and Use Committee (IACUC) at the University of California San Diego. The acquisition, preparation and in vitro maintenance of S. mansoni have been described. Briefly, adult worms were harvested from hamsters 42 days post-infection in RPMI or DMEM, and washed five times prior to maintenance overnight at 37 °C and 5% CO2 in Basch medium containing 4% heat-inactivated FBS, 100 µg/mL streptomycin and 100 U/mL penicillin.
Ex vivo screens with adults employed 24-well flat-bottomed plates and approximately 5 males and 2–3 females/well. The complex and often dynamic phenotypic responses that the schistosome parasite is capable of were observed using a Zeiss Axiovert A1 inverted microscope at 24 h. Observations were classified using a constrained nomenclature that involves simple “descriptors” to convey changes in shape, motility and appearance, and the inability of the male worm to adhere to the bottom of the well, compared to DMSO controls. Each descriptor was given a value of 1 and these were added up to yield a “severity score” with a maximum of 4. Evidence of degeneracy or death was awarded a value of 4 as was damage to the tegument (parasite’s surface) on the understanding this would compromise survival in vivo. […] Data were averaged across two experiments for each compound concentration tested.

IC50 [1]: 0.74 µM
EC50 [2]: 0.09 µM
Structure (SMILES): C[C@@H]1[C@H](O)[C@@H](C)/C=C/C=C/C=C/C=C/C=C/C=C/C=C/[C@H](O[C@@H]2O[C@H](C)[C@@H](O)[C@H](N)[C@@H]2O)C[C@@H]2O[C@](O)(C[C@@H](O)C[C@@H](O)[C@H](O)CC[C@@H](O)C[C@@H](O)CC(=O)O[C@H]1C)C[C@H](O)[C@H]2C(=O)O [AmpB, amphotericin B, reference compound]

Structure (SMILES): O=C(Cn1ccnc1[N+](=O)[O-])NCc1ccccc1 [Benznidazole, benznidazole, reference compound]
EC50 [3]: 4.71 µM

EC50 [4]: 4.4 µM
EC50 [5]: 5.7 µM
Structure (SMILES): Cc1ncc([N+](=O)[O-])n1CCO [Metronidazole, metronidazole, reference compound]

Structure (SMILES): N=C(N)c1ccc(OCCCCCOc2ccc(C(=N)N)cc2)cc1 [Pentamidine, pentamidine, reference compound]
EC50 [6]: 0.01 µM

Structure (SMILES): O=C(C1CCCCC1)N1CC(=O)N2CCc3ccccc3C2C1 (stereo not shown) [Praziquantel, praziquantel, reference compound]
S. mansoni, adult worm: least concentration at which a severity score of 4 was recorded (S. mansoni, adult worm): 1.25 µM
